Measured values as given in ChEMBL document CHEMBL1201862, “PubChem BioAssay data set” (2004).
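Following 48 hours of exposure in 96-well plates, responses at five concentrations were used to interpolate endpoints linearly. The concentration for 50% growth inhibition is given as GI50.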 Calls of active or inactive are those of the source. No stated cut-off is given here; in the data, active = GI50 up to about 1.1 µM and inactive = higher.

Key:
Test in all cases: NCI-60 cell line screen, 48 h
786-0 = system: 786-0
A549 = system: A549
ACHN = system: ACHN
CAKI-1 = system: CAKI-1
CCRF-CEM = system: CCRF-CEM
COLO 205 = system: COLO 205
DU-145 = system: DU-145
EKVX = system: EKVX
HCC 2998 = system: HCC 2998
HCT-116 = system: HCT-116
HCT-15 = system: HCT-15
HL-60 = system: HL-60
HOP-62 = system: HOP-62
HOP-92 = system: HOP-92
HT-29 = system: HT-29
Hs-578T = system: Hs-578T
IGROV-1 = system: IGROV-1
K562 = system: K562
KM12 = system: KM12
LOX IMVI = system: LOX IMVI
M14 = system: M14
MCF7 = system: MCF7
MDA-MB-231 = system: MDA-MB-231
MDA-MB-435 = system: MDA-MB-435
MDA-N = system: MDA-N
MOLT-4 = system: MOLT-4
Malme-3M = system: Malme-3M
NCI-H226 = system: NCI-H226
NCI-H23 = system: NCI-H23
NCI-H460 = system: NCI-H460
NCI/ADR-RES = system: NCI/ADR-RES
OVCAR-3 = system: OVCAR-3
OVCAR-4 = system: OVCAR-4
OVCAR-5 = system: OVCAR-5
OVCAR-8 = system: OVCAR-8
PC-3 = system: PC-3
RPMI-8226 = system: RPMI-8226
RXF 393 = system: RXF 393
SF-268 = system: SF-268
SF-295 = system: SF-295
SF-539 = system: SF-539
SK-MEL-28 = system: SK-MEL-28
SK-MEL-2 = system: SK-MEL-2
SK-MEL-5 = system: SK-MEL-5
SK-OV-3 = system: SK-OV-3
SN12C = system: SN12C
SNB-19 = system: SNB-19
SNB-75 = system: SNB-75
SR = system: SR
SW-620 = system: SW-620
T47D = system: T47D
TK-10 = system: TK-10
U-251 = system: U-251
UACC-257 = system: UACC-257
UACC-62 = system: UACC-62
UO-31 = system: UO-31
A498 = system: A498
NCI-H522 = system: NCI-H522

Measured: GI50

O=C1NCCCc2nonc21
> 100 µM: HCT-15
inactive: 786-0 > 100 µM | A549 > 100 µM | ACHN > 100 µM | CAKI-1 > 100 µM | CCRF-CEM > 100 µM | COLO 205 > 100 µM | DU-145 > 100 µM | EKVX > 100 µM | HCC 2998 > 100 µM | HCT-116 > 100 µM | HL-60 > 100 µM | HOP-62 > 100 µM | HOP-92 > 100 µM | HT-29 > 100 µM | Hs-578T > 100 µM | IGROV-1 > 100 µM | K562 > 100 µM | KM12 > 100 µM | LOX IMVI > 100 µM | M14 > 100 µM | MCF7 > 100 µM | MDA-MB-231 > 100 µM | MDA-MB-435 > 100 µM | MDA-N > 100 µM | MOLT-4 > 100 µM | Malme-3M > 100 µM | NCI-H226 > 100 µM | NCI-H23 > 100 µM | NCI-H460 > 100 µM | NCI/ADR-RES > 100 µM | OVCAR-3 > 100 µM | OVCAR-4 > 100 µM | OVCAR-5 > 100 µM | OVCAR-8 > 100 µM | PC-3 > 100 µM | RPMI-8226 > 100 µM | RXF 393 > 100 µM | SF-268 > 100 µM | SF-295 > 100 µM | SF-539 > 100 µM | SK-MEL-28 > 100 µM | SK-MEL-2 > 100 µM | SK-MEL-5 > 100 µM | SK-OV-3 > 100 µM | SN12C > 100 µM | SNB-19 > 100 µM | SNB-75 > 100 µM | SR > 100 µM | SW-620 > 100 µM | T47D > 100 µM | TK-10 > 100 µM | U-251 > 100 µM | UACC-257 > 100 µM | UACC-62 > 100 µM | UO-31 > 100 µM

c1ccc(CSC(SCc2ccccc2)c2ccc3c(c2)OCO3)cc1
> 10 µM: HCT-15
inactive: 786-0 > 10 µM | A498 > 10 µM | A549 > 10 µM | ACHN > 10 µM | CAKI-1 > 10 µM | CCRF-CEM > 10 µM | COLO 205 > 10 µM | DU-145 > 10 µM | EKVX > 10 µM | HCC 2998 > 10 µM | HCT-116 > 10 µM | HL-60 > 10 µM | HOP-62 > 10 µM | HOP-92 > 10 µM | HT-29 > 10 µM | Hs-578T > 10 µM | IGROV-1 > 10 µM | K562 > 10 µM | KM12 > 10 µM | LOX IMVI > 10 µM | M14 > 10 µM | MCF7 > 10 µM | MDA-MB-231 > 10 µM | MDA-N > 10 µM | MOLT-4 > 10 µM | Malme-3M > 10 µM | NCI-H226 > 10 µM | NCI-H23 > 10 µM | NCI-H460 > 10 µM | NCI-H522 > 10 µM | NCI/ADR-RES > 10 µM | OVCAR-3 > 10 µM | OVCAR-4 > 10 µM | OVCAR-8 > 10 µM | PC-3 > 10 µM | RPMI-8226 > 10 µM | RXF 393 > 10 µM | SF-268 > 10 µM | SF-295 > 10 µM | SF-539 > 10 µM | SK-MEL-28 > 10 µM | SK-MEL-2 > 10 µM | SK-MEL-5 > 10 µM | SK-OV-3 6.44 µM | SN12C > 10 µM | SNB-19 > 10 µM | SNB-75 > 10 µM | SW-620 > 10 µM | T47D > 10 µM | TK-10 > 10 µM | U-251 > 10 µM | UACC-257 > 10 µM | UACC-62 > 10 µM | UO-31 > 10 µM

Cn1c2ccccc2c(=O)c2c(O)cc3c(c21)C1OCC(C)(O)C1O3 (stereo not drawn)
inactive: 786-0 39.2 µM | A549 61.8 µM | ACHN 67.8 µM | CAKI-1 30.7 µM | CCRF-CEM 23.8 µM | COLO 205 51.1 µM | DU-145 29.2 µM | EKVX 7.48 µM | HCC 2998 > 100 µM | HCT-116 37.8 µM | HL-60 81.5 µM | HOP-62 23.6 µM | HT-29 31.8 µM | Hs-578T 6.47 µM | IGROV-1 25.3 µM | K562 53.3 µM | M14 > 100 µM | MCF7 51.5 µM | MDA-MB-231 > 100 µM | MDA-MB-435 > 100 µM | MDA-N > 100 µM | MOLT-4 28.2 µM | NCI-H226 10.5 µM | NCI-H460 > 10 µM | NCI/ADR-RES 42.9 µM | OVCAR-4 > 100 µM | OVCAR-5 19.5 µM | OVCAR-8 34 µM | PC-3 44.7 µM | RPMI-8226 85.7 µM | RXF 393 22.5 µM | SF-268 26.6 µM | SF-539 21.6 µM | SK-MEL-28 83.9 µM | SK-MEL-2 28.3 µM | SK-MEL-5 50.2 µM | SK-OV-3 37.2 µM | SN12C 58.2 µM | SNB-19 26.6 µM | SNB-75 22.9 µM | SR 46.7 µM | SW-620 80 µM | T47D 42.7 µM | TK-10 82 µM | U-251 21.4 µM | UACC-257 > 100 µM | UACC-62 > 10 µM | UO-31 5.4 µM
53.3 µM: HCT-15

CC(=O)/N=S(/NC(=O)c1ccc(C)cc1)C(Cl)(Cl)Cl (stereo not drawn)
inactive: 786-0 18 µM | A549 > 100 µM | ACHN 41 µM | CCRF-CEM 18.6 µM | COLO 205 19.8 µM | DU-145 > 100 µM | EKVX 44.5 µM | HCC 2998 15.1 µM | HCT-116 31 µM | HOP-62 56.4 µM | HOP-92 > 100 µM | HT-29 23.6 µM | Hs-578T 59.3 µM | IGROV-1 38.6 µM | K562 23.9 µM | KM12 > 100 µM | LOX IMVI 29.7 µM | M14 15.7 µM | MCF7 51.9 µM | MDA-MB-231 26.2 µM | MDA-MB-435 19.1 µM | MDA-N 55.6 µM | MOLT-4 25.1 µM | Malme-3M 29.6 µM | NCI-H226 > 100 µM | NCI-H23 24.1 µM | NCI-H460 38.5 µM | NCI/ADR-RES 20.4 µM | OVCAR-3 20.9 µM | OVCAR-4 31.2 µM | OVCAR-5 36.2 µM | OVCAR-8 15.6 µM | PC-3 > 100 µM | RPMI-8226 74.3 µM | RXF 393 44.6 µM | SF-268 97.1 µM | SF-295 > 100 µM | SF-539 77.1 µM | SK-MEL-28 46.7 µM | SK-MEL-5 33.3 µM | SK-OV-3 70 µM | SN12C 37.9 µM | SNB-19 94.8 µM | SNB-75 45.3 µM | SW-620 15.8 µM | T47D 34.3 µM | TK-10 > 100 µM | U-251 22 µM | UACC-257 44 µM | UACC-62 99.3 µM | UO-31 26.1 µM
active: HL-60 0.226 µM
42.8 µM: HCT-15
